How the values were obtained:
[1] = tested on: NCI-H226 (lung cancer) xenograft tumors; assay: NCI-H226 subcutaneous xenograft, oral gavage; format: in vivo, mice; settings: oral gavage once a day for 21 days, 50 or 100 mg/kg
[2] = tested on: mitochondrial membrane depolarization in HL-60 cells; assay: Mitochondrial membrane potential (JC-9) in HL-60; format: cell-based, human
Experimental: The cells were incubated for various times, and the cells then were harvested by centrifugation. The cells were washed in PBS and resuspended in 1 mL of PBS. 10 μg of the JC-9 dye was added and the cells were incubated at room temperature for 10 minutes protected from light. The cells were then washed two times with PBS and brought up in 500 μL PBS. The fluorescent intensity of each cell was determined by flow cytometry at 525 nm (green channel) and 675 nm (red channel). 50,000 cells were analyzed in each experiment. The shift in the red channel was then used to determine the amount of mitochondrial membrane depolarization.

SMILES: C=CCc1cccc(/C=N/NC(=O)CN2CCN(Cc3ccccc3)CC2)c1O [PAC-1]
- tumor growth, NCI-H226 xenograft [1]: significantly retards tumor growth in a dose-dependent manner
- mitochondrial membrane depolarization [2]: causes mitochondrial membrane depolarization

— patent US10166229B2, “Compounds and methods for the treatment of cancer” (The Board of Trustees of the University of Illinois, priority 2005, dated 2019)
